Measured values: ChEMBL document CHEMBL3272088, “Stereochemical studies of adrenergic drugs. Diastereomeric 2-amino-1-phenylcyclobutanols” (1976)
The source made the active and inactive calls. No cut-off for these calls is given here.

What was measured:
[1] = tested on: Vas deferens; assay: Intrinsic activity of (-)-norepinephrine-induced tissue contraction in albino Sprague-Dawley rat reserpine-treated adrenergically innervated vas deferens at 1 x 10^-5 to 3 x 10^-5 M after 15 mins by isotonic myograph analysis; assay type: functional, tissue-based
[2] = tested on: Vas deferens; assay: Intrinsic activity of (-)-norepinephrine-induced tissue contraction in albino Sprague-Dawley rat reserpine-treated adrenergically innervated vas deferens at 3 x 10^-6 M after 15 mins by isotonic myograph analysis; assay type: functional
[3] = Potentiation of (-)-norepinephrine-induced tissue contraction in albino Sprague-Dawley rat reserpine-treated adrenergically innervated vas deferens at 3 x 10^-6 M after 15 mins by isotonic myograph analysis; assay type: functional
[4] = organism: Rattus norvegicus; assay: Potentiation of (-)-norepinephrine-induced tissue contraction in albino Sprague-Dawley rat reserpine-treated adrenergically innervated vas deferens at 3 x 10^-5 to 3 x 10^-4 M after 15 mins by isotonic myograph analysis; assay type: functional, tissue-based
[5] = tested on: Vas deferens; assay: Intrinsic activity of (-)-norepinephrine-induced tissue contraction in albino Sprague-Dawley rat reserpine-treated adrenergically innervated vas deferens after 15 mins by isotonic myograph analysis; assay type: functional, tissue-based
[6] = Potentiation of (-)-norepinephrine-induced tissue contraction in albino Sprague-Dawley rat reserpine-treated adrenergically innervated vas deferens at 3 x 10^-4 M after 15 mins by isotonic myograph analysis; assay type: functional
[7] = organism: Rattus norvegicus; assay: Potentiation of (-)-norepinephrine-induced tissue contraction in albino Sprague-Dawley rat reserpine-treated adrenergically innervated vas deferens after 15 mins by isotonic myograph analysis; assay type: functional, tissue-based
[8] = Induction of tissue contraction in albino Sprague-Dawley rat reserpine-treated adrenergically innervated vas deferens at 3 x 10^-7 M by isotonic myograph analysis; assay type: functional

For CC(N)C(O)c1ccccc1 (centres undefined) [PHENYLPROPANOLAMINE], the Activity [1] was “Active”, the Activity [2] was under 5% and the Activity [3] was 66%.

With N[C@@H]1CC[C@]1(O)c1ccccc1 the Activity [4] was “inactive” and the Activity [5] was “inactive”.

In the case of N[C@@H]1CC[C@@]1(O)c1ccccc1, the Activity [6] is reported as 55%, the Activity [7] is reported as “Dose-dependent effect” and the Activity [5] is reported as “inactive”.

With NCC(O)c1ccc(O)c(O)c1 (centres undefined) the Activity [8] was 10%.
